{"source": "ChEMBL document CHEMBL4842353", "about": "“Structure-activity relationship investigation for imidazopyrazole-3-carboxamide derivatives as novel selective inhibitors of Bruton's tyrosine kinase” (Eur J Med Chem, 2021)", "key": {"in vivo [1]": {"test": "in vivo", "details": "Sprague-Dawley, rat, po, 10 mg/kg"}, "in vivo [2]": {"test": "in vivo", "details": "Sprague-Dawley, rat, po, 10 mg/kg", "remark": "listed apart in the source"}, "in vivo [3]": {"test": "in vivo", "details": "Sprague-Dawley, rat, po, 10 mg/kg", "remark": "listed apart in the source"}, "in vivo [4]": {"test": "in vivo", "details": "Sprague-Dawley, rat, iv, 1 mg/kg"}, "in vivo [5]": {"test": "in vivo", "details": "Sprague-Dawley, rat, iv, 1 mg/kg", "remark": "listed apart in the source"}, "in vivo [6]": {"test": "in vivo", "details": "Sprague-Dawley, rat, po, 10 mg/kg", "remark": "listed apart in the source"}, "in vivo [7]": {"test": "in vivo", "details": "Sprague-Dawley, rat, iv, 1 mg/kg", "remark": "listed apart in the source"}, "in vivo [8]": {"test": "in vivo", "details": "Sprague-Dawley, rat, iv, 1 mg/kg", "remark": "listed apart in the source"}, "in vivo [9]": {"test": "in vivo", "details": "Sprague-Dawley, rat, po, 10 mg/kg", "remark": "listed apart in the source"}, "in vivo [10]": {"test": "in vivo", "details": "Sprague-Dawley, rat, po, 10 mg/kg", "remark": "listed apart in the source"}, "in vivo [11]": {"test": "in vivo", "details": "Sprague-Dawley, rat, iv, 1 mg/kg", "remark": "listed apart in the source"}, "in vivo [12]": {"test": "in vivo", "details": "Sprague-Dawley, rat, iv, 1 mg/kg", "remark": "listed apart in the source"}, "in vivo [13]": {"test": "in vivo", "details": "Sprague-Dawley, rat, po, 10 mg/kg", "remark": "listed apart in the source"}, "in vivo [14]": {"test": "in vivo", "details": "Sprague-Dawley, rat, po, 10 mg/kg", "remark": "listed apart in the source"}, "in vivo [15]": {"test": "in vivo", "details": "Sprague-Dawley, rat, iv, 1 mg/kg", "remark": "listed apart in the source"}}, "data": [{"compound": "CC#CC(=O)N1CCC(c2cnn3c(C(N)=O)c(-c4ccc(Oc5ccccc5)cc4)[nH]c23)CC1", "values": [{"measurement": "half-life at 24 h", "setting": "in vivo [1]", "value": 5.98, "unit": "h"}, {"measurement": "bioavailability at 24 h", "setting": "in vivo [2]", "value": 10.8, "unit": "%"}, {"measurement": "AUC(0-inf) at 24 h", "setting": "in vivo [3]", "value": 213, "unit": "ng·h/mL"}, {"measurement": "AUC(0-inf) at 12 h", "setting": "in vivo [4]", "value": 198, "unit": "ng·h/mL"}, {"measurement": "MRT last at 12 h", "setting": "in vivo [5]", "value": 2.19, "unit": "h"}, {"measurement": "Cmax at 24 h", "setting": "in vivo [6]", "value": 16, "unit": "ng/mL"}, {"measurement": "clearance at 12 h", "setting": "in vivo [7]", "value": 85, "unit": "mL/min/kg"}, {"measurement": "Cmax at 12 h", "setting": "in vivo [8]", "value": 537, "unit": "ng/mL"}, {"measurement": "Tmax at 24 h", "setting": "in vivo [9]", "value": 0.83, "unit": "h"}, {"measurement": "CL/F at 24 h", "setting": "in vivo [10]", "value": 786, "unit": "mL/min/kg"}, {"measurement": "half-life at 12 h", "setting": "in vivo [11]", "value": 2.35, "unit": "h"}, {"measurement": "AUC(0-t) at 12 h", "setting": "in vivo [12]", "value": 180, "unit": "ng·h/mL"}, {"measurement": "AUC(0-t) at 24 h", "setting": "in vivo [13]", "value": 167, "unit": "ng·h/mL"}, {"measurement": "MRT last at 24 h", "setting": "in vivo [14]", "value": 10.2, "unit": "h"}, {"measurement": "Tmax at 12 h", "setting": "in vivo [15]", "value": 1.98, "unit": "min"}]}]}
